{
  "source": "paper PMC4541410",
  "about": "(Scientific Reports, 2015)",
  "key": {"[1]": {"test_system": "T20-resistant HIV-1 variant V38A/N42D", "assay_type": "cell-based"}, "[2]": {"test_system": "preexisting antibodies in sera from HIV-1-infected patients", "assay": "Sandwich ELISA: cross-reactivity of peptides with preexisting antibodies in HIV-1-infected patients", "assay_type": "binding, human", "settings": "peptide coated at 10 μg/ml, serially diluted sera, 37 °C 1 h, A450", "procedure": "A sandwich ELISA was conducted to determine the cross-reactivity of the peptides with the preexisting antibodies in HIV-1-infected patients. […] The wells were then blocked with 1% gelatin, followed by addition of 50 μl of serially diluted sera from HIV-1-infected patients and incubation at 37 °C for 1 h. Then, HRP-labeled goat-anti-human IgG (Abcam, UK) and TMB were added sequentially. A450 was determined with an ELISA reader (Ultra 384, Tecan)."}, "93IN101 (C)": {"test_system": "93IN101 (C)", "settings": "read-out: IC50 (nM), infection by primary isolate 93IN101 (C); primary HIV-1 isolate, subtype C"}, "HIV-1Bal (subtype B, R5)": {"test_system": "HIV-1Bal (subtype B, R5)", "settings": "read-out: IC50, inhibition of infection by HIV-1Bal; M7 cells, 100 TCID50, p24 ELISA day 7; triplicate, repeated twice", "description": "(§1) Then, the culture supernatants were changed to fresh media. On the fourth day post-infection, culture supernatants were collected for detection of p24 antigen by ELISA. […] Then, the culture supernatants were changed to fresh media. On the fourth day post-infection, the culture supernatants were discarded and fresh media were complemented again. The supernatants were collected on the seventh day post-infection and tested for p24 antigen by ELISA as previously described. The percent inhibition of p24 production was calculated."}, "[3]": {"test_system": "HIV-1IIIB (subtype B, X4)", "settings": "read-out: IC50, inhibition of infection by HIV-1IIIB; MT-2 cells, 100 TCID50, p24 ELISA day 4; triplicate, repeated twice", "description": "as §1"}, "proteinase K": {"test_system": "proteinase K", "assay": "in vitro", "settings": "proteinase K in PBS, pH 7.2", "procedure": "Chromatographic analyses were performed using an ODS-C8 column (5 μm, 100 mm × 2.0 mm ID) kept at ambient temperature. The mobile phase was composed of acetonitrile-water-formic acid in the ratio of 50:50:0.1 (v/v/v) at a flow rate of 0.3 mL/min. The sample injection volume was 10 μL. Acetonitrile was HPLC grade and other chemical reagents and solvents were analytical grade. A Thermo TSQ Quantum Discovery MAX triple-quadruple tandem mass spectrometer equipped with ESI source (San Jose, CA) and Surveyor LC pump were used for LC-MS analysis. Data acquisition and data processing were performed by using Xcalibur software and LCQuan 2.0 data analysis program (Thermo Finnigan), respectively. Optimized MS parameters were as below: 4800 V spray voltage, 40.0 psi sheath gas pressure, 1.0 psi auxiliary valve flow and 300 °C of capillary temperature. When running collision-induced dissociation (CID), the pressure was set to 1.5 mTorr.\nThe peptides (10 μg/mL) were prepared in PBS pH 7.2 containing 20 ng/ml proteinase K. The resulting mixture were incubated at 37 °C in a water bath and taken out at different time intervals (0, 5, 15, 30, 60, 120 minutes), followed by quenching the samples with ethyl alcohol and quantitating the peptides by LC-MS analysis as described above."}},
  "note": "Where a SMILES comes first, the peptide text is derived from it.",
  "data": [
    {"smiles": "CC[C@H](C)[C@H](NC(=O)[C@H](CO)NC(=O)[C@H](CCC(=O)O)NC(=O)[C@H](CCC(=O)O)NC(=O)[C@H](CCC(N)=O)NC(=O)[C@H](CCCCN)NC(=O)[C@H](CCCCN)NC(=O)[C@@H](NC(=O)[C@H](CCC(N)=O)NC(=O)[C@H](CCC(=O)O)NC(=O)[C@H](CCC(=O)O)NC(=O)[C@@H](NC(=O)[C@H](CCCCN)NC(=O)[C@H](CCCCN)NC(=O)[C@@H](NC(=O)[C@H](CC(C)C)NC(=O)[C@H](CCC(=O)O)NC(=O)[C@H](CCC(=O)O)NC(=O)[C@H](CO)NC(=O)[C@H](CCCCN)NC(=O)[C@H](CCCCN)NC(=O)[C@@H](NC(=O)[C@H](CC(C)C)NC(=O)[C@H](CCC(=O)O)NC(=O)[C@H](CCC(=O)O)NC(=O)[C@@H](NC(=O)[C@H](CCCCN)NC(=O)[C@H](CCCCN)NC(=O)[C@H](CC(=O)O)NC(=O)[C@H](Cc1c[nH]c2ccccc12)NC(=O)[C@H](CCC(=O)O)NC(=O)[C@H](CCC(=O)O)NC(=O)[C@H](Cc1c[nH]c2ccccc12)NC(=O)[C@@H](NC(=O)[C@H](CCSC)NC(C)=O)[C@@H](C)O)[C@@H](C)CC)[C@@H](C)CC)[C@@H](C)CC)[C@@H](C)CC)[C@@H](C)CC)C(=O)N[C@@H](CCCCN)C(=O)N[C@@H](CCCCN)C(N)=O", "note": "[AP3] (Ac-MTWEEWDKKIEELIKKSEELIKKIEEQIKKQEESIKK-NH2)", "values": [
      {"measurement": "IC50", "setting": "[1]", "value": "31.3 ± 6.62", "unit": "nM"},
      {"measurement": "reactivity with antibodies in sera from five HIV-1-infected patients", "setting": "[2]", "value": "none of the three artificial peptides AP1, AP2 and AP3 was recognized"},
      {"measurement": "IC50", "setting": "93IN101 (C)", "value": "16.3 ± 1.5", "unit": "nM"},
      {"measurement": "IC50", "setting": "HIV-1Bal (subtype B, R5)", "value": 0.0151, "unit": "µM"},
      {"measurement": "IC50", "setting": "[3]", "value": 0.00306, "unit": "µM"},
      {"measurement": "fold longer in vivo elimination half-life than T20", "setting": "AP3 versus T20, SD rat, i.v. 1 mg/kg", "value": "about 2.8 fold"},
      {"measurement": "Cmax", "setting": "intravenous 1 mg/kg, male SD rats, n = 2, plasma by sandwich ELISA, PK Solver", "value": 289.57, "unit": "µg/mL"},
      {"measurement": "remaining at 2 h, 10 μg/mL", "setting": "proteinase K", "value": 100, "unit": "%"}
    ]}
  ]
}
